According to PubChem BioAssay AID1745844 (Carcinogenic Potency Database (CPDB), 2022):
The source made the active and inactive calls. The rule behind the calls is not given here.

Tested on: rodent lifetime carcinogenesis bioassay, tumor incidence TD50
Assay: carcinogenic potency in animals, long-term in vivo studies, CPDB compilation (AID 1745844)

## CNNC
hamster, strain Syrian Golden, females, in drinking water, site: blood vessels, lesion: angiosarcoma, dosed 67 weeks, study length 67 weeks
  TD50: 0.156 mg/kg/day
hamster, strain Syrian Golden, females, in drinking water, site: cecum, lesion: adenocarcinoma, dosed 67 weeks, study length 67 weeks
  TD50: 2.84 mg/kg/day
hamster, strain Syrian Golden, females, in drinking water, site: cecum, lesion: polypoid adenoma, dosed 67 weeks, study length 67 weeks
  TD50: 2.08 mg/kg/day
hamster, strain Syrian Golden, females, in drinking water, site: cecum, lesion: several types, types named in the paper, dosed 67 weeks, study length 67 weeks
  TD50: 0.864 mg/kg/day
hamster, strain Syrian Golden, females, in drinking water, site: heart, lesion: angiosarcoma, dosed 67 weeks, study length 67 weeks
  TD50: 2.13 mg/kg/day
hamster, strain Syrian Golden, females, in drinking water, site: liver, lesion: angiosarcoma, dosed 67 weeks, study length 67 weeks
  TD50: 0.156 mg/kg/day
hamster, strain Syrian Golden, females, in drinking water, site: liver, lesion: hepatoma, dosed 67 weeks, study length 67 weeks
  TD50: 1.4 mg/kg/day
hamster, strain Syrian Golden, females, in drinking water, site: liver, lesion: several types, types named in the paper, dosed 67 weeks, study length 67 weeks
  TD50: 0.917 mg/kg/day
hamster, strain Syrian Golden, females, in drinking water, site: lung, lesion: angiosarcoma, dosed 67 weeks, study length 67 weeks
  TD50: 0.395 mg/kg/day
hamster, strain Syrian Golden, females, in drinking water, site: muscle, lesion: angiosarcoma, dosed 67 weeks, study length 67 weeks
  TD50: 1.03 mg/kg/day
hamster, strain Syrian Golden, females, in drinking water, site: pancreas, lesion: angiosarcoma, dosed 67 weeks, study length 67 weeks
  TD50: 18.4 mg/kg/day
hamster, strain Syrian Golden, males, in drinking water, site: blood vessels, lesion: angiosarcoma, dosed 71 weeks, study length 71 weeks
  TD50: 0.211 mg/kg/day
hamster, strain Syrian Golden, males, in drinking water, site: cecum, lesion: polypoid adenoma, dosed 71 weeks, study length 71 weeks
  TD50: 2.42 mg/kg/day
hamster, strain Syrian Golden, males, in drinking water, site: heart, lesion: angiosarcoma, dosed 71 weeks, study length 71 weeks
  TD50: 2.49 mg/kg/day
hamster, strain Syrian Golden, males, in drinking water, site: liver, lesion: angiosarcoma, dosed 71 weeks, study length 71 weeks
  TD50: 0.211 mg/kg/day
hamster, strain Syrian Golden, males, in drinking water, site: liver, lesion: several types, types named in the paper, dosed 71 weeks, study length 71 weeks
  TD50: 2.05 mg/kg/day
hamster, strain Syrian Golden, males, in drinking water, site: lung, lesion: angiosarcoma, dosed 71 weeks, study length 71 weeks
  TD50: 0.685 mg/kg/day
hamster, strain Syrian Golden, males, in drinking water, site: muscle, lesion: angiosarcoma, dosed 71 weeks, study length 71 weeks
  TD50: 1.36 mg/kg/day
hamster, strain Syrian Golden, males, in drinking water, site: pancreas, lesion: angiosarcoma, dosed 71 weeks, study length 71 weeks
  TD50: 18.6 mg/kg/day
mouse, strain Swiss albino, females, in drinking water, site: blood vessels, lesion: angiosarcoma, dosed 52 weeks, study length 52 weeks
  carcinogen call: positive
mouse, strain Swiss albino, females, in drinking water, site: liver, lesion: hepatoma, dosed 52 weeks, study length 52 weeks
  TD50: 13.9 mg/kg/day
mouse, strain Swiss albino, females, in drinking water, site: lung, lesion: adenoma, dosed 52 weeks, study length 52 weeks
  TD50: 0.559 mg/kg/day
mouse, strain Swiss albino, males, in drinking water, site: blood vessels, lesion: angiosarcoma, dosed 52 weeks, study length 52 weeks
  TD50: 0.102 mg/kg/day
mouse, strain Swiss albino, males, in drinking water, site: fat, lesion: angiosarcoma, dosed 52 weeks, study length 52 weeks
  TD50: 0.215 mg/kg/day
mouse, strain Swiss albino, males, in drinking water, site: liver, lesion: angiosarcoma, dosed 52 weeks, study length 52 weeks
  TD50: 0.377 mg/kg/day
mouse, strain Swiss albino, males, in drinking water, site: lung, lesion: several types, types named in the paper, dosed 52 weeks, study length 52 weeks
  TD50: 1.81 mg/kg/day
mouse, strain Swiss albino, males, in drinking water, site: lymph node, lesion: angiosarcoma, dosed 52 weeks, study length 52 weeks
  TD50: 1.02 mg/kg/day
mouse, strain Swiss albino, males, in drinking water, site: muscle, lesion: angiosarcoma, dosed 52 weeks, study length 52 weeks
  TD50: 0.203 mg/kg/day
mouse, strain Swiss albino, males, in drinking water, site: paraepididymal tissue, lesion: angiosarcoma, dosed 52 weeks, study length 52 weeks
  TD50: 0.337 mg/kg/day
mouse, strain Swiss albino, males, in drinking water, site: pararenal tissue, lesion: angiosarcoma, dosed 52 weeks, study length 52 weeks
  TD50: 0.18 mg/kg/day
mouse, strain Swiss albino, males, in drinking water, site: subcutaneous tissue, lesion: angiosarcoma, dosed 52 weeks, study length 52 weeks
  TD50: 0.781 mg/kg/day

## CC(Oc1c(Cl)cccc1Cl)C1=NCCN1 (stereo not drawn)
rat, strain Long-Evans, females, in feed, site: any site (literature study), lesion: one or several types, types not named, dosed 52 weeks, study length 52 weeks
  TD50: 2.3 mg/kg/day (inactive)
rat, strain Long-Evans, males, in feed, site: any site (literature study), lesion: one or several types, types not named, dosed 52 weeks, study length 52 weeks
  TD50: 2.3 mg/kg/day (inactive)
